# Test results as given in patent US20100298314A1, “NOVEL JNK INHIBITORS” (Schering Corporation, priority 2006, published 2010).
# Read-outs that look alike come from different tables or passages of the source.
# Key:
# Type in all cases: biochemical
# [1] = biological target: JNK3 (Homo sapiens, UniProt P53779); assay: JNK3 kinase DELFIA (phosphorylation of biotinylated GST-ATF2); conditions: final ATP 2 uM
# Experimental: (§1) Before initiation of kinase reactions, compounds were pre-incubated with the enzyme for 10 minutes. Pre-incubation reactions contained 50 mM HEPES pH 7.3, 10 mM MgCl2, 1 mM DTT, 75 mM NaCl, 1 mM EDTA, 1 mM EGTA, 0.01% CHAPS, 2 nM JNK1, 6 ug/mL biotinylated GST-ATF2, 0.1 mg/ml BSA, 5% DMSO and 0-100 μM compound in a total volume of 40 μL. After a 10 minute room temperature pre-incubation, 10 μL of 35 μM ATP was added to start the reaction (final concentration of ATP=7 uM). Reactions were incubated at room temperature for 30 minutes. A small aliquot (10 uL) was taken and quenched by adding into 190 uL of DELFIA Assay buffer containing 100 mM EDTA. The amount of phosphate transferred to biotinylated GST-ATF2 was measured using the Dissociation Enhanced Lanthanide Fluorescence Immuno-assay (DELFIA) from Perkin Elmer according to manufacturers protocol. Briefly, biotinylated GST-ATF2 was captured on streptavidin coated plates for 1 hour, washed twice, then incubated for 1 hour with a 1:1000 dilution of rabbit-anti-phospho-ATF2 antibody and a 1:3500 dilution of Europium-labeled anti-rabbit secondary antibody. Free antibody was removed with six washes, Europium was dissociated from the antibody, and Europium fluorescence was measured using an excitation wavelength of 340 nm and an emission wavelength of 615 nm. JNK2 and JNK3 kinase reactions were carried out similarly, with the exception that the final concentration of ATP was 4 uM and 2 uM, respectively.
# [2] = biological target: JNK1 (Homo sapiens, UniProt P45983); assay: JNK1 kinase DELFIA (phosphorylation of biotinylated GST-ATF2)
# Experimental: as §1
# [3] = biological target: JNK2 (Homo sapiens, UniProt P45984); assay: JNK2 kinase DELFIA (phosphorylation of biotinylated GST-ATF2); conditions: final ATP 4 uM, reported as range for a group
# Experimental: as §1
# [4] = DELFIA, 2 nM JNK1, final ATP 7 uM, 10 min pre-incubation, reported as range for a group
# Chain of JNK1 (P45983 whole entry, species assumed): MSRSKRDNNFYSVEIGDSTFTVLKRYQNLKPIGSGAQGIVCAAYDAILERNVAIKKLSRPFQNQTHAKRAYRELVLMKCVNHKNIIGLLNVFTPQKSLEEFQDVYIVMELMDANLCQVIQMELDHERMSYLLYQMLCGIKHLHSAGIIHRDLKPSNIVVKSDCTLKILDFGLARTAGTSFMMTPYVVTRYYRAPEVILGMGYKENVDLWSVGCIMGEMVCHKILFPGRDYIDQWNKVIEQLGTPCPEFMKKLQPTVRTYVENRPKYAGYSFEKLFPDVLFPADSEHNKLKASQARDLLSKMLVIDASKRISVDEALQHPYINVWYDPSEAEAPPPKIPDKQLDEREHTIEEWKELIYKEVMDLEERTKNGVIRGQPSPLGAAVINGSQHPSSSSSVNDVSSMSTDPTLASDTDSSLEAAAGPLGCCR
# Chain of JNK3 (P53779 whole entry, species assumed): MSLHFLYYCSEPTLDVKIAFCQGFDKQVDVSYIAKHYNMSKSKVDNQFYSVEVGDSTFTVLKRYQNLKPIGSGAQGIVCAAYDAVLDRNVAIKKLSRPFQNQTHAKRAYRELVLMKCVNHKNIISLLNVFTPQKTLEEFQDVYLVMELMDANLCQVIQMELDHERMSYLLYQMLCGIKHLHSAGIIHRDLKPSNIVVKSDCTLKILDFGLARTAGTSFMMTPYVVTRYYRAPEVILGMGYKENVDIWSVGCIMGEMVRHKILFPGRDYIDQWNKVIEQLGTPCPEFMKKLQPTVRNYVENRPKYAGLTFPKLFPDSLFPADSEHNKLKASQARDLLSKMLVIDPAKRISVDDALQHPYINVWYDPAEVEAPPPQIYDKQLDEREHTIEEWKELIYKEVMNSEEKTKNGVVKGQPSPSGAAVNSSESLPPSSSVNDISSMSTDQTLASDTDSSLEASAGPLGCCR
# Chain of JNK2 (P45984 whole entry, species assumed): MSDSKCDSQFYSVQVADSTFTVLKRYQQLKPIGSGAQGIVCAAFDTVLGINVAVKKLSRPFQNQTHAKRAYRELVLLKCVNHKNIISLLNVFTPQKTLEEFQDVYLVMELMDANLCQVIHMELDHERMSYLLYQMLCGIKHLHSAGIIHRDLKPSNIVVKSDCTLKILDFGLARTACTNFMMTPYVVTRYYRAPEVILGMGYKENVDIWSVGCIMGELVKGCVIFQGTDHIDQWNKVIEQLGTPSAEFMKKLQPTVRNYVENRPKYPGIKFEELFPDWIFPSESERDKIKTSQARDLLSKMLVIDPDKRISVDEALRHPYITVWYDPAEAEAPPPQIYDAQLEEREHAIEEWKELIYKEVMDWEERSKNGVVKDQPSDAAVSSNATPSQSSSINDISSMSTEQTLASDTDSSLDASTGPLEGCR
IC50 [1],"IC50 [2, 4]",IC50 [3],IC50 ([2]; read-out: JNK 1 IC50),Compound
9 to 50 nM,6 to 100 nM,4 to 46 nM,,Cc1nc2ccc(CNC(=O)c3cccn4c(C(=O)N[C@H](CO)CC(C)C)c(C)nc34)cc2[nH]1 [Compound 599]
9 to 50 nM,6 to 100 nM,4 to 46 nM,21 nM,Cc1cccc(-n2cc(CNC(=O)c3cccn4c(C(=O)N[C@H](CO)CC(C)C)cnc34)cn2)c1 [Compound 605]
